According to paper PMC10531337 (International Journal of Molecular Sciences, 2023):

Target: T1, epidermal growth factor receptor (EGFR) (Homo sapiens, UniProt P00533)
T1 construct: extracellular domain
Assay: SPR (Biacore S200, EGFR amine-coupled to CM5 chip, […] model); also BLI (Octet RED96) at […]
Format: binding

T1 sequence (P00533 25-645 limits assumed): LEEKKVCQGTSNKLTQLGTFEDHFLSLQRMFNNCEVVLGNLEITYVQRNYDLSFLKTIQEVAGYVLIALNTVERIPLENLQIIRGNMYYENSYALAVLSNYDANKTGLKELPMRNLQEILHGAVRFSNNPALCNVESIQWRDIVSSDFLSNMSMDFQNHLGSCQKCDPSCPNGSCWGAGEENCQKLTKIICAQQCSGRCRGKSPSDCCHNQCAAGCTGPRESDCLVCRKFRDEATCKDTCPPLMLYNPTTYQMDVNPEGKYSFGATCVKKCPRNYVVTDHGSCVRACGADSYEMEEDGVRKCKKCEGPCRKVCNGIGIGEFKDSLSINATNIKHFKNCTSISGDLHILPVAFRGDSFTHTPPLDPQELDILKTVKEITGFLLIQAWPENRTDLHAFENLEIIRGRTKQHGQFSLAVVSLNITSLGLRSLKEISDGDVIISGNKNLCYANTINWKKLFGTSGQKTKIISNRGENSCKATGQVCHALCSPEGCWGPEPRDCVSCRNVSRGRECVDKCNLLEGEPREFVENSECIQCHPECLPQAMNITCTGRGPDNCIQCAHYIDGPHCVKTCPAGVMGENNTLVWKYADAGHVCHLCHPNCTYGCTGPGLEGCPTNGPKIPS

Kd: 7.14 µM
SMILES: O=C(O[C@@H]1Cc2c(O)cc(O)cc2O[C@@H]1c1cc(O)c(O)c(O)c1-c1c([C@H]2Oc3cc(O)cc(O)c3C[C@H]2OC(=O)c2cc(O)c(O)c(O)c2)cc(O)c(O)c1O)c1cc(O)c(O)c(O)c1 [compound 3, theasinensin A]
